Laboratory results from US20210078988A1, “MODULATORS OF INDOLEAMINE 2,3-DIOXYGENASE” (GLAXOSMITHKLINE INTELLECTUAL PROPERTY DEVELOPMENT LIMITED, priority 2017, published 2021).

Target: T1, indoleamine 2, 3-dioxygenase (IDO1) (Homo sapiens, UniProt P14902)
T1 construct: human peripheral blood mononuclear cells (PBMC) (PB003F; host or cells: human PBMC stimulated with IFN-gamma and LPS
Assay: PBMC IDO1 assay (kynurenine detection via mass spectrometry)
Assay type: cell-based
Settings: human PBMC stimulated with IFN-γ and LPS, 2 days, kynurenine by mass spectrometry; read-out: IDO1 PBMC pIC50 (converted)
Summary of the method: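 Kynurenine output, read by RapidFire mass spectrometry as a ratio to internal standard, reflected IDO1 activity in human PBMCs induced with 100 ng/ml IFN-γ plus 50 ng/ml LPS and dosed with compound (11 points, 3-fold) over 2 days. Cytotoxicity was tracked by CellTiter-Glo; XC50 values came from Hill-slope fits.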

T1 sequence (P14902 whole entry): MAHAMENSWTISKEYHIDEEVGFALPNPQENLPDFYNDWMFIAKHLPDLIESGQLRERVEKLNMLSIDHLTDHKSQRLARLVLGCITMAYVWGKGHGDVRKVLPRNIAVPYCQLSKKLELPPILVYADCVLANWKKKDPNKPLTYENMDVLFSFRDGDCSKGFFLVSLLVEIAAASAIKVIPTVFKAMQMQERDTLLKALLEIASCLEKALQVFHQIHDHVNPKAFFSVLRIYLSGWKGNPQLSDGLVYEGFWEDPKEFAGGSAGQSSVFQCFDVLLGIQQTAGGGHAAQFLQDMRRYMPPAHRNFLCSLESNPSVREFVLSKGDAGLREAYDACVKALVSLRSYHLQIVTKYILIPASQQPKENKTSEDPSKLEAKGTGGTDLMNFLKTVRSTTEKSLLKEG

SMILES	IC50 [nM]
COc1ccc([C@@H](CC2CCN(C(=O)OC(C)(C)C)CC2)NC(=O)c2ccc(Cl)s2)cn1 [Example 70, (R)-tert-butyl 4-(2-(5-chlorothiophene-2-carboxamido)-2-(6-methoxypyridin-3-yl)ethyl)piperidine-1-carboxylate]	15.8
CC(C)(C)OC(=O)N1CCC(CC(NC(=O)c2ccc(Br)c(F)c2)c2ccccc2)CC1 (stereo not shown) [Example 71, tert-butyl 4-(2-(4-bromo-3-fluorobenzamido)-2-phenylethyl)piperidine-1-carboxylate]	15.8
CC(C)(C)OC(=O)N1CCC(CC(NC(=O)c2ccc(I)cc2)c2ccccc2)CC1 (stereo not shown) [Example 72, tert-butyl 4-(2-(4-iodobenzamido)-2-phenylethyl)piperidine-1-carboxylate]	15.8
CN(C)c1nnc(C(CC2CCN(C(=O)OC(C)(C)C)CC2)NC(=O)c2ccc(Cl)s2)o1 (stereo not shown) [Example 73, tert-butyl 4-(2-(5-chlorothiophene-2-carboxamido)-2-(5-(dimethylamino)-1,3,4-oxadiazol-2-yl)ethyl)piperidine-1-carboxylate]	15.8
CC(C)C(CC1CCN(C(=O)OC(C)(C)C)CC1)NC(=O)c1ccc(Br)cc1 (stereo not shown) [Example 74, tert-butyl 4-(2-(4-bromobenzamido)-3-methylbutyl)piperidine-1-carboxylate]	15.8
CC(C)CC(CC1CCN(C(=O)OC(C)(C)C)CC1)NC(=O)c1ccc(Cl)cc1 (stereo not shown) [Example 75, tert-butyl 4-(2-(4-chlorobenzamido)-4-methylpentyl)piperidine-1-carboxylate]	15.8
CC(C)CC(CC1CCN(C(=O)OC(C)(C)C)CC1)NC(=O)c1ccc(F)cc1 (stereo not shown) [Example 76, tert-butyl 4-(2-(4-fluorobenzamido)-4-methylpentyl)piperidine-1-carboxylate]	15.8
O=C(NC(CC1CCN(C(=O)OC2CC2)CC1)c1ccccc1)c1ccc(Cl)cc1 (stereo not shown) [Example 77, cyclopropyl 4-(2-(4-chlorobenzamido)-2-phenylethyl)piperidine-1-carboxylate]	15.8
CCc1ccc(C(=O)NC(CC2CCN(C(=O)OC(C)(C)C)CC2)C2CCCC2)s1 (stereo not shown) [Example 78, tert-butyl 4-(2-cyclopentyl-2-(5-ethylthiophene-2-carboxamido)ethyl)piperidine-1-carboxylate]	15.8
CC(C)CC(CC1CCN(C(=O)OC(C)(C)C)CC1)NC(=O)c1ccc(F)s1 (stereo not shown) [Example 79, tert-butyl 4-(2-(5-fluorothiophene-2-carboxamido)-4-methylpentyl)piperidine-1-carboxylate]	15.8
Cc1ccc(C(=O)NC(CC2CCN(C(=O)OC(C)(C)C)CC2)C2CCCCC2)s1 (stereo not shown) [Example 80, tert-butyl 4-(2-cyclohexyl-2-(5-methylthiophene-2-carboxamido)ethyl)piperidine-1-carboxylate]	15.8
CCOC(=O)N1CCC(C[C@H](NC(=O)c2ccc(Cl)cc2)c2ccccc2)CC1 [Example 81, (S)-ethyl 4-(2-(4-chlorobenzamido)-2-phenylethyl)piperidine-1-carboxylate]	15.8
CCN(CCOC)c1nnc(C(CC2CCN(C(=O)OC(C)(C)C)CC2)NC(=O)c2ccc(C)s2)o1 (stereo not shown) [Example 82, tert-butyl 4-(2-(5-(ethyl(2-methoxyethyl)amino)-1,3,4-oxadiazol-2-yl)-2-(5-methylthiophene-2-carboxamido)ethyl)piperidine-1-carboxylate]	15.8
CC(C)(C)OC(=O)N1CCC(C[C@@H](CCNCc2ccccc2)NC(=O)c2ccc(Cl)s2)CC1 [Example 83, (S)-tert-butyl 4-(4-(benzylamino)-2-(5-chlorothiophene-2-carboxamido)butyl)piperidine-1-carboxylate]	15.8
CC(C)(C)OC(=O)N1CCC(CC(NC(=O)c2ccc(Cl)c(F)c2)c2ccccc2)CC1 (stereo not shown) [Example 84, tert-butyl 4-(2-(4-chloro-3-fluorobenzamido)-2-phenylethyl)piperidine-1-carboxylate]	20
CCOC(=O)N1CCC(CC(NC(=O)c2ccc(F)cc2)c2ccc(OC)nc2)CC1 (stereo not shown) [Example 85, ethyl 4-(2-(4-fluorobenzamido)-2-(6-methoxypyridin-3-yl)ethyl)piperidine-1-carboxylate]	20
C#CCOc1ccc(C(=O)NC(CC2CCN(C(=O)OC(C)(C)C)CC2)c2ccccc2)cc1 (stereo not shown) [Example 86, tert-butyl 4-(2-phenyl-2-(4-(prop-2-yn-1-yloxy)benzamido)ethyl)piperidine-1-carboxylate]	20
CCCc1ccc(C(=O)NC(CC2CCN(C(=O)OC(C)(C)C)CC2)c2ccccc2)s1 (stereo not shown) [Example 87, tert-butyl 4-(2-phenyl-2-(5-propylthiophene-2-carboxamido)ethyl)piperidine-1-carboxylate]	20
CC(C)C(CC1CCN(C(=O)OC(C)(C)C)CC1)NC(=O)c1ccc(Cl)cc1 (stereo not shown) [Example 88, tert-butyl 4-(2-(4-chlorobenzamido)-3-methylbutyl)piperidine-1-carboxylate]	20
CCCOC(=O)N1CCC(CC(NC(=O)c2ccc(Cl)cc2)c2ccccc2)CC1 (stereo not shown) [Example 89, propyl 4-(2-(4-chlorobenzamido)-2-phenylethyl)piperidine-1-carboxylate]	20
CC(C)(C)OC(=O)N1CCC(C[C@H](NC(=O)c2ccc(Cl)cc2)C2CC2)CC1 [Example 90, (S)-tert-butyl 4-(2-(4-chlorobenzamido)-2-cyclopropylethyl)piperidine-1-carboxylate]	20
CC(C)(C)OC(=O)N1CCC(CC(NC(=O)c2ccc(Br)cc2)C2CCCCC2)CC1 (stereo not shown) [Example 91, tert-butyl 4-(2-(4-bromobenzamido)-2-cyclohexylethyl)piperidine-1-carboxylate]	20
CC(C)(C)OC(=O)N1CCC(CC(NC(=O)c2ccc(F)s2)C2CCCCC2)CC1 (stereo not shown) [Example 92, tert-butyl 4-(2-cyclohexyl-2-(5-fluorothiophene-2-carboxamido)ethyl)piperidine-1-carboxylate]	20
Cc1ccc(C(=O)NC(CC2CCN(C(=O)C(F)(F)c3ccccc3)CC2)c2ccccc2)s1 (stereo not shown) [Example 93, N-(2-(1-(2,2-difluoro-2-phenylacetyl)piperidin-4-yl)-1-phenylethyl)-5-methylthiophene-2-carboxamide]	20
Cc1ccc(C(=O)NC(CC2CCN(C(=O)C(F)(F)F)CC2)c2ccccc2)s1 (stereo not shown) [Example 94, 5-methyl-N-(1-phenyl-2-(1-(2,2,2-trifluoroacetyl)piperidin-4-yl)ethyl)thiophene-2-carboxamide]	20
CCC(F)(F)C(=O)N1CCC(CC(NC(=O)c2ccc(C)s2)c2ccccc2)CC1 (stereo not shown) [Example 95, N-(2-(1-(2,2-difluorobutanoyl)piperidin-4-yl)-1-phenylethyl)-5-methylthiophene-2-carboxamide]	20
CCCCN(CC)c1nnc(C(CC2CCN(C(=O)OC(C)(C)C)CC2)NC(=O)c2ccc(C)s2)o1 (stereo not shown) [Example 96, tert-butyl 4-(2-(5-(butyl(ethyl)amino)-1,3,4-oxadiazol-2-yl)-2-(5-methylthiophene-2-carboxamido)ethyl)piperidine-1-carboxylate]	20
CC(C)(C)OC(=O)N1CCC(CC(NC(=O)c2ccc(C3CC3)cc2)c2ccccc2)CC1 (stereo not shown) [Example 97, tert-butyl 4-(2-(4-cyclopropylbenzamido)-2-phenylethyl)piperidine-1-carboxylate]	25.1
